The subject of one data set is HTLV-IIIB virus. The data set can be described thus: Anti-HIV activity: protection of HTLV-IIIB infected MT-4 cells, MTT method. The format is cell-based. The conditions noted are these: MT-4 cells infected with HTLV-IIIB, 5 day culture; for EC50: Human immunodeficiency virus 1, MT4, 120 h. How it is done:
The anti-HIV activity of the dipeptide compound of the present invention was evaluated as described below. That is, the inhibitory action of the compound on formation of HIV virus particles which infects T lymphocyte was evaluated by potency to prevent death of T lymphocyte accompanied by said virus infection.
(§1) According to a test method which was already reported in publications (H.Nakashima et al., Antimicrob. Agents Chemother.36, 1249-1255 (1992), etc.,), anti-HIV activity was evaluated, by using MT-4 cell line and HTLV-IIIB virus, MT-4 cells (2.5×10^4 well, MOI:001) infected with said HTLV-IIIB virus just before the addition were into 96-well microtiter plate wherein each well contained various concentration of tested compound. At the same time, in order to investigate cytotoxicity of tested compounds to MT-4 cell line, non-infected MT-4 cell line was cultured in the presence of various kinds of tested compound. After 5 day culture at 37° C. in a CO2 incubator, the number of vial cells was counted by MTT method.
Virus whose infectious value was 3.8×10^4 TCID 50/ml was used.
(Tetrazolium dyes change colour on reduction, which living cells bring about.)

The next data set addresses T1, Recombinant HIV protease (Human immunodeficiency virus type 1 group M subtype B, UniProt P04585).
T1 construct: Recombinant HIV protease
The experiment in a line: HIV protease inhibitory activity (cleavage of synthetic hepta-peptide, HPLC). The format is biochemical. The conditions noted are these: for HIV protease inhibitory activity (%) / inhibition at 0.05 µM: 37° C., 60 min; for inhibition at 5 µM: read-out: HIV protease inhibitory activity (%). How it is done:
Recombinant HIV protease (Biochemistry, 250 (9), 264 (1990)) and synthetic hepta-peptide (H-Ser-Gln-Asn-Tyr-Pro-Ile-Val-OH/trifluoroacetic acid salt) were used for assay of protease activity. Peptide fragment H-Pro-Ile-Val-OH formed by cleavage between -Tyr . . . Pro of said substrate after a reaction in the presence of various concentration of tested compound at 37° C. for 60 min. was determined by reversed phase HPLC and the inhibitory rate was calculated (referred to Japanese laid-open unexamined patent, No. 170722/1993).
The concentration of tested compound represents the final concentration thereof of the reaction mixture.

Data set [1] can be described thus: Pharmacokinetics in rats, intravenous or intraduodenal administration, plasma concentration. The format is in vivo. How it is done:
Metabolic characteristics of the dipeptide compounds of the present invention was evaluated using rats. Tested compounds dissolved in vehicle was administered intraduodenally or intravenously. After administration, blood was taken and the concentration of residual tested compound in plasma was analyzed. The dosage of the tested compound was described in table 3.

A further data set deals with MT-4 cell line. The data set can be described thus: Cytotoxicity to non-infected MT-4 cell line, MTT method. The format is cell-based. The conditions noted are these: non-infected MT-4 cells, 5 day culture. As for the experimental part:
as §1, with “method. […]” for “method.”

Values after ≈ are worked out from the molar mass of the structure shown.

As for `Cc1c(O)cccc1C(=O)N[C@@H](Cc1ccccc1)[C@H](O)C(=O)N1CSC(C)(C)[C@H]1C(=O)NC(C)(C)C` [Compound of example 22, (R)-N-tert-butyl-3-[(2S,3S)-2-hydroxy-3-[3-hydroxy-2-methylbenzoy 1]amino-4-phenylbutanoyl]-5,5-dimethyl-1,3-thiazolidine-4-carboxamide], in the data set on HTLV-IIIB virus, the “Anti-HIV activity EC50” value is 0.15 µg/mL. The entries for the “HIV protease inhibitory activity (%)” value on Recombinant HIV protease (concentration 50 nM (final)) and on Recombinant HIV protease (concentration 5 μM (final)) were 87.6% and 99.0%, respectively. The AUC in data set [1] (i.d., 20.0 mg/kg) turned out to be 106 µg/mL/min; in data set [1] (i.v., 10.0 mg/kg), 111 µg/mL/min. In addition, the “Cytotoxicity CC50” value in the data set on MT-4 cell line is 156 µg/mL.
On to `Cc1c(O)cccc1C(=O)N[C@@H](Cc1ccccc1)[C@H](O)C(=O)N1CO[C@H](C)[C@H]1C(=O)NC(C)(C)C` [Compound of example 30, (4S,5R)-N-tert-butyl-3-[(2S,3S)-2-hydroxy-3-(2-methyl-3-hydroxybenzoyl)amino-4-phenylbutanoyl]-5-methyl-1,3-oxazolidine-4-carboxamide], for which the EC50 in the data set on HTLV-IIIB virus was determined as 1.4 µg/mL (≈ 2.81 µM). The inhibition at 0.05 µM at Recombinant HIV protease (concentration 50 nM (final)) amounted to 21.5%. Besides, the inhibition at 5 µM on Recombinant HIV protease was determined as 96.9%. Also, in the data set with MT-4 cell line, the “Cytotoxicity CC50” value came to 191 µg/mL.
Consider `Cc1c(O)cccc1C(=O)N[C@@H](Cc1ccccc1)[C@H](O)C(=O)N1CS(=O)(=O)C[C@H]1C(=O)NC(C)(C)C` [Compound of example 28, (R)-N-tert-butyl-3-[(2S,3S)-2-hydroxy-3-(2-methyl-3-hydroxybenzoyl)amino-4-phenylbutanoyl]-1,3-thiazolidine-1,1-dioxide-4-carboxamide], for which the “Anti-HIV activity EC50” value in the data set on HTLV-IIIB virus is 1.80 µg/mL. In addition, the “HIV protease inhibitory activity (%)” value worked out at 23.8% at Recombinant HIV protease (concentration 50 nM (final)) and 96.1% at Recombinant HIV protease (concentration 5 μM (final)). For the same compound, the “Cytotoxicity CC50” value in the data set on MT-4 cell line is 146 µg/mL.
In the data set with HTLV-IIIB virus, `CCc1c(O)cccc1C(=O)N[C@@H](Cc1ccccc1)[C@H](O)C(=O)N1CSC(C)(C)[C@H]1C(=O)NCc1ccccc1C` [Compound of example 38, (R)-N-(2-methylbenzyl)-3-[(2S,3S)-3-(2-ethyl-3-hydroxybenzoyl)amino-2-hydroxy-4-phenylbutanoyl]-5,5-dimethyl-1,3-thiazolidine-4-carboxamide] had a half-maximal effective concentration (EC50) of 0.18 µg/mL (≈ 0.305 µM). The inhibition at 0.05 µM on Recombinant HIV protease (concentration 50 nM (final)) worked out at 97.3%. Further, on Recombinant HIV protease, the inhibition at 5 µM is over 99%. The “Cytotoxicity CC50” value with MT-4 cell line worked out at 19.5 µg/mL.
As for `Cc1c(O)cccc1C(=O)N[C@@H](Cc1ccccc1)[C@H](O)C(=O)N1CSC[C@H]1C(=O)NC(C)(C)C` [Compound of example 21, (R)-N-tert-butyl-3-[(2S,3S)-2-hydroxy-3-[3-hydroxy-2-methylbenzoy 1]amino-4-phenylbutanoyl]-1,3-thiazolidine-4-carboxamide], the “Anti-HIV activity EC50” value with HTLV-IIIB virus is 0.70 µg/mL. Moreover, the AUC in data set [1] (i.d., 20.0 mg/kg) is 101 µg/mL/min; in data set [1] (i.v., 10.0 mg/kg), 111 µg/mL/min. Besides, the “Cytotoxicity CC50” value in the data set with MT-4 cell line was 184 µg/mL.
Turning to `Cc1ccccc1CNC(=O)[C@H]1N(C(=O)[C@@H](O)[C@H](Cc2ccccc2)NC(=O)c2cccc(O)c2C)CSC1(C)C` [Compound of example 37, (R)-N-(2-methylbenzyl)-3-[(2S,3S)-3-(3-hydroxy-2-methylbenzoyl)amino-2-hydroxy-4-phenylbutanoyl]-5,5-dimethyl-1,3-thiazolidine-4-carboxamide], the inhibition at 0.05 µM on Recombinant HIV protease (concentration 50 nM (final)) was found to be 95.8%. Moreover, the inhibition at 5 µM on Recombinant HIV protease was over 99%. Besides, the AUC in data set [1] (i.d., 10.0 mg/kg) is 55 µg/mL/min; in data set [1] (i.v., 10.0 mg/kg) it was 131 µg/mL/min.
As to `CCc1c(O)cccc1C(=O)N[C@@H](Cc1ccccc1)[C@H](O)C(=O)N1CSC(C)(C)[C@H]1C(=O)NC(C)(C)C` [Compound of example 36, (R)-N-tert-butyl-3-[(2S,3S)-3-(2-ethyl-3-hydroxybenzoyl)amino-2-hydroxy-4-phenylbutanoyl]-5,5-dimethyl-1,3-thiazolidine-4-carboxamide], the EC50 in the data set on HTLV-IIIB virus was found to be 0.54 µg/mL (≈ 0.997 µM). Further, the inhibition at 0.05 µM on Recombinant HIV protease (concentration 50 nM (final)) turned out to be 83.5%. Besides, the inhibition at 5 µM at Recombinant HIV protease was over 99%. The AUC in data set [1] (i.d., 10.0 mg/kg) was found to be 64 µg/mL/min; in data set [1] (i.v., 10.0 mg/kg), 174 µg/mL/min. For the same compound, the “Cytotoxicity CC50” value in the data set with MT-4 cell line came to 103 µg/mL.
For `Cc1c(O)cccc1C(=O)N[C@@H](Cc1ccccc1)[C@H](O)C(=O)N1CCC[C@H]1C(=O)NC(C)(C)C` [Compound of example 24, N-tert-butyl-1-[(2S,3S)-2-hydroxy-3-N-[3-hydroxy-2-methylbenzoyl]amino-4-phenylbutanoyl]-L-prolinamide], the “Anti-HIV activity EC50” value in the data set on HTLV-IIIB virus is 1.97 µg/mL. Also, the “HIV protease inhibitory activity (%)” value was determined as 17.6% at Recombinant HIV protease (concentration 50 nM (final)) and 94.2% on Recombinant HIV protease (concentration 5 μM (final)). Also, in the data set on MT-4 cell line, the “Cytotoxicity CC50” value came out at 231 µg/mL.
Turning to `CCc1c(O)cccc1C(=O)N[C@@H](Cc1ccccc1)[C@H](O)C(=O)N1CSC[C@H]1C(=O)NCc1ccccc1C` [Compound of example 35, (R)-N-(2-methylbenzyl)-3-[(2S,3S)-3-(2-ethyl-3-hydroxybenzoyl)amino-2-hydroxy-4-phenylbutanoyl]-1,3-thiazolidine-4-carboxamide], in the data set on HTLV-IIIB virus, the EC50 stood at 4.15 µg/mL (≈ 7.39 µM). In addition, the inhibition at 0.05 µM at Recombinant HIV protease (concentration 50 nM (final)) was determined as 48.8%. For the same compound, at Recombinant HIV protease, the inhibition at 5 µM is 98.1%. Also, the “Cytotoxicity CC50” value in the data set with MT-4 cell line was determined as 90.9 µg/mL.
As to `CCCc1c(O)cccc1C(=O)N[C@@H](Cc1ccccc1)[C@H](O)C(=O)N1CSC[C@H]1C(=O)NC(C)(C)C` [Compound of example 32, (R)-N-tert-butyl-3-[(2S,3S)-2-hydroxy-3-(3-hydroxy-2-propylbenzoyl)amino-4-phenylbutanoyl]-1,3-thiazolidine-4-carboxamide], the inhibition at 0.05 µM at Recombinant HIV protease (concentration 50 nM (final)) stood at 17.2%. On Recombinant HIV protease, the inhibition at 5 µM turned out to be 92%.
As for `Cc1c(N)cc(N)cc1C(=O)N[C@@H](Cc1ccccc1)[C@H](O)C(=O)N1CSC[C@H]1C(=O)NC(C)(C)C` [Compound of example 33, (R)-N-tert-butyl-3-[(2S,3S)-2-hydroxy-3-(3,5-diamino-2-methylbenzoyl)amino-4-phenylbutanoyl]-1,3-thiazolidine-4-carboxamide], the inhibition at 5 µM on Recombinant HIV protease came to 85.2%.
As to `CCCCNC(=O)[C@@H]1CSCN1C(=O)[C@@H](O)[C@H](Cc1ccccc1)NC(=O)c1cccc(O)c1C` [Compound of example 39, (R)-N-n-butyl-3-[(2S,3S)-3-(3-hydroxy-2-methylbenzoyl)amino-2-hydroxy-4-phenylbutanoyl]-1,3-thiazolidine-4-carboxamide], the inhibition at 0.05 µM on Recombinant HIV protease (concentration 50 nM (final)) came out at 13.4%. Further, the inhibition at 5 µM at Recombinant HIV protease came to 92%.
Turning to `Cc1c(O)cccc1C(=O)N[C@@H](Cc1ccccc1)[C@H](O)C(=O)N1CSC[C@H]1C(=O)NCc1ccccc1Cl` [Compound of example 42, (R)-N-(2-chlorobenzyl)-3-[(2S,3S)-3-(3-hydroxy-2-methylbenzoyl)amino-2-hydroxy-4-phenylbutanoyl]-1,3-thiazolidine-4-carboxamide], the inhibition at 0.05 µM at Recombinant HIV protease (concentration 50 nM (final)) worked out at 51.2%. Moreover, at Recombinant HIV protease, the inhibition at 5 µM was 97.4%.
As for `CSC[C@H](NC(=O)COc1cccc2cnccc12)C(=O)N[C@@H](Cc1ccccc1)[C@H](O)C(=O)N1CSC[C@H]1C(=O)NC(C)(C)C` [KNI-272, (R)-3-[(2S,3S)-3-(N-(isoquinoline-5-yloxy)acetyl-methylthio-L-alanyl)amino-2-hydroxy-4-phenylbutanoyl]1,3-thiazolidine-4-N'-t-butylcarboxamide, reference compound], the “Anti-HIV activity EC50” value in the data set with HTLV-IIIB virus was 0.21 µg/mL. Also, the AUC in data set [1] (i.d., 10.0 mg/kg) was found to be 98 µg/mL/min; in data set [1] (i.v., 10.0 mg/kg), 224 µg/mL/min. Further, in the data set with MT-4 cell line, the “Cytotoxicity CC50” value was 115 µg/mL.
For the compound `Cc1cccc(C)c1CNC(=O)[C@@H]1CSCN1C(=O)[C@@H](O)[C@H](Cc1ccccc1)NC(=O)c1cccc(O)c1C` [Compound of example 44, (R)-N-(2,6-dimethylbenzyl)-3-[(2S,3S)-3-(3-hydroxy-2-methylbenzoyl)amino-2-hydroxy-4-phenylbutanoyl]-1,3-thiazolidine-4-carboxamide], the inhibition at 0.05 µM on Recombinant HIV protease (concentration 50 nM (final)) was found to be 75.2%. In addition, the inhibition at 5 µM at Recombinant HIV protease amounted to 97.9%.

For orientation: EC50 means the concentration that produces a half-maximal response.

These data come from patent US5962640A, “Methods for preparing novel dipeptide compounds or pharmacuetically acceptable salts thereof” (Japan Energy Corporation, priority 1995, dated 1999).
